Tested on: peripheral blood mononuclear cells (PBMC)
Assay: Microarray analysis (Human Genome U133 plus 2.0 array) of mRNA expression in PBMC treated with compound A
Type: cell-based
Settings: 100 nM, ratio to control
From the text: Since it is not easy to obtain a cancer tissue clinically, the measurement of the marker in hemocytes readily obtainable in peripheral blood would be more useful. Specifically blood was taken from a normal individual (volunteer) and peripheral blood mononuclear cells were purified and treated with compound A, followed by measurement of change in expression of the gene (mRNA) with the microarray (Human Genome […] plus 2.0 array: Affymetrix).
Ficoll-Paque PLUS solution (Amersham, 17-1440-02) was slowly added to the blood taken (with heparin added) from a healthy individual to form a layer underneath the blood (15 ml of Ficoll-Paque PLUS solution was added to 25 ml of blood). After the mixture was centrifuged at 1500 rpm for 30 min, the upper part containing platelets was removed and then a layer containing mononuclear cells was transferred to another tube. The cells were suspended in PBS and centrifuged at 1500 rpm for 5 min, followed by removal of the supernatant. After these steps were repeated twice, the cells were again suspended in RPMI1640 (containing 10% FBS). The number of the cells was then counted.
The cells were suspended in the medium to 5×10^6 cells/ml and plated 1 ml per well of a 24-well plate. Immediately, 111 μl of compound A (ten times more concentrated than the final concentrations) was added to the well (four wells per each concentration tested). The cells were then cultured in an incubator with 5% carbon dioxide gas at 37° C. Two or four hours later, the supernatant was collected and centrifuged at 1500 rpm for five minutes. TRI reagent (SIGMA) (1 ml) was added to each well of the plate from which the supernatant was removed to harvest the cells, which was added to the centrifuged pellet to dissolve. RNA was purified in accordance with the protocol of TRI reagent. RNA was further purified using RNeasy (QIAGEN). Absorbance at 260 nm was measured to quantify an amount of RNA.
A .cel file for each sample was obtained by using GeneChip Operating Software Ver.1.2 (Affymetrix). The RMA method was applied to ten of the .cel files obtained in the microarray experiment. Log signal intensity at a gene level was obtained by normalization of that at a probe level. By subtracting a control value from log signal intensity for each case, the log signal intensity was converted into a log signal ratio to the control. Genes were narrowed down in the basis of a log signal ratio, and a signal value. Specifically, among genes showing that the P value was 5% or less; the expression level in the untreated (control) is 100 or more by signal value; and the expression level when treated with 10 nM of compound A both for two and four hours decreased by 50% or more, genes of which expression level decreased to 25% or less upon the two-hour treatment were picked out. The software used is R2.2.1 (http://www.r-project.org/), affy package 1.8.1 (http://www.bioconductor.org).
Among genes showing, upon the treatment with compound A, that the P value was 5% or less; the expression level in the untreated (control) is 100 or more by signal value; and the expression level when treated with 10 nM of compound A both for two and four hours decreased by 50% or more, genes of which expression level decreased to 25% or less upon the two-hour treatment, and results thereof were shown in Table 2. For each gene evaluated, gene name (Gene Name), abbreviated name (Gene Symbol), accession number (Accession), alias name (Synonym), Probe set number in Human Genome U133 Plus 2.0 Array (Human Genome U133 Plus 2.0 Array Probeset ID), the expression level upon the two-hour treatment with E7107 (E7107 (2 h)), and the expression level upon the four-hour treatment with E7107 (E7107 (4 h)) were respectively shown in Table 2.

For `CCC(O)C(C)C1OC1CC(C)(O)/C=C/C=C(\C)C1OC(=O)CC(O)CCC(C)(O)C(OC(=O)N2CCN(C3CCCCCC3)CC2)/C=C/C1C` (stereo not drawn) [E7107, (8E,12E,14E)-7-((4-Cycloheptylpiperazin-1-yl)carbonyl)oxy-3,6,16,21-tetrahydroxy-6,10,12,16,20-pentamethyl-18,19-epoxytricosa-8,12,14-trien-11-olide], the “AHSA2 mRNA expression level (226665_at)” value (2 h) was 0.20, the “ATXN1 mRNA expression level (242230_at)” value (2 h) was 0.25 and the “C13orf31 mRNA expression level (228937_at)” value (2 h) was 0.04. The “C15orf48 mRNA expression level (223484_at)” value (2 h) was 0.02, the “CCRL2//LOC642312 mRNA expression level (211434_s_at)” value (2 h) was 0.22 and the “CLEC5A mRNA expression level (219890_at)” value (2 h) was 0.08. The “CSF2RA mRNA expression level (210340_s_at)” value (2 h) was 0.08, the “CTSL1 mRNA expression level (202087_s_at)” value (2 h) was 0.20 and the “DHRS9 mRNA expression level (223952_x_at)” value (2 h) was 0.18. For the same compound, the “DOK3 mRNA expression level (223553_s_at)” value (2 h) was 0.30, the “FPRL2 mRNA expression level (230422_at)” value (2 h) was 0.05 and the “GNA15 mRNA expression level (205349_at)” value (2 h) was 0.11. For the same compound, the “GPR84 mRNA expression level (223767_at)” value (2 h) was 0.19, the “GTF2H1 mRNA expression level (202451_at)” value (2 h) was 0.07 and the “HNRPA2B1 mRNA expression level (225107_at)” value (2 h) was 0.07. The “HPSE mRNA expression level (222881_at)” value (2 h) was 0.13, the “IQCG mRNA expression level (235347_at)” value (2 h) was 0.08 and the “LOC51315 mRNA expression level (233329_s_at)” value (2 h) was 0.11. For the same compound, the “MS4A7 mRNA expression level (224358_s_at)” value (2 h) was 0.22, the “NLRP12 mRNA expression level (1554952_s_at)” value (2 h) was 0.24 and the “NRIP3 mRNA expression level (219557_s_at)” value (2 h) was 0.11. For the same compound, the “NSMCE4A mRNA expression level (228506_at)” value (2 h) was 0.19, the “OLR1 mRNA expression level (210004_at)” value (2 h) was 0.01 and the “RAPH1 mRNA expression level (225188_at)” value (2 h) was 0.05. The “RBBP6 mRNA expression level (212781_at)” value (2 h) was 0.12, the “SLC25A19 mRNA expression level (223222_at)” value (2 h) was 0.17 and the “SLC43A2 mRNA expression level (228918_at)” value (2 h) was 0.17. The “TNFAIP6 mRNA expression level (206026_s_at)” value (2 h) was 0.07, the “TNS1 mRNA expression level (221748_s_at)” value (2 h) was 0.09 and the “TRAPPC4 mRNA expression level (217959_s_at)” value (2 h) was 0.08. The “Transcribed locus mRNA expression level (230098_at)” value (2 h) was 0.08, the “WSB1 mRNA expression level (201294_s_at)” value (2 h) was 0.29 and the “ZCCHC6 mRNA expression level (220933_s_at)” value (2 h) was 0.14. The “AHSA2 mRNA expression level (226665_at)” value (4 h) was 0.23, the “ATXN1 mRNA expression level (242230_at)” value (4 h) was 0.13 and the “C13orf31 mRNA expression level (228937_at)” value (4 h) was 0.06. The “C15orf48 mRNA expression level (223484_at)” value (4 h) was 0.01, the “CCRL2//LOC642312 mRNA expression level (211434_s_at)” value (4 h) was 0.29 and the “CLEC5A mRNA expression level (219890_at)” value (4 h) was 0.01. For the same compound, the “CSF2RA mRNA expression level (210340_s_at)” value (4 h) was 0.10, the “CTSL1 mRNA expression level (202087_s_at)” value (4 h) was 0.13 and the “DHRS9 mRNA expression level (223952_x_at)” value (4 h) was 0.12. For the same compound, the “DOK3 mRNA expression level (223553_s_at)” value (4 h) was 0.35, the “FPRL2 mRNA expression level (230422_at)” value (4 h) was 0.02 and the “GNA15 mRNA expression level (205349_at)” value (4 h) was 0.15. The “GPR84 mRNA expression level (223767_at)” value (4 h) was 0.38, the “GTF2H1 mRNA expression level (202451_at)” value (4 h) was 0.02 and the “HNRPA2B1 mRNA expression level (225107_at)” value (4 h) was 0.10. The “HPSE mRNA expression level (222881_at)” value (4 h) was 0.11, the “IQCG mRNA expression level (235347_at)” value (4 h) was 0.05 and the “LOC51315 mRNA expression level (233329_s_at)” value (4 h) was 0.06. For the same compound, the “MS4A7 mRNA expression level (224358_s_at)” value (4 h) was 0.03, the “NLRP12 mRNA expression level (1554952_s_at)” value (4 h) was 0.20 and the “NRIP3 mRNA expression level (219557_s_at)” value (4 h) was 0.24. For the same compound, the “NSMCE4A mRNA expression level (228506_at)” value (4 h) was 0.19, the “OLR1 mRNA expression level (210004_at)” value (4 h) was 0.00 and the “RAPH1 mRNA expression level (225188_at)” value (4 h) was 0.10. The “RBBP6 mRNA expression level (212781_at)” value (4 h) was 0.17, the “SLC25A19 mRNA expression level (223222_at)” value (4 h) was 0.18 and the “SLC43A2 mRNA expression level (228918_at)” value (4 h) was 0.08. The “TNFAIP6 mRNA expression level (206026_s_at)” value (4 h) was 0.02, the “TNS1 mRNA expression level (221748_s_at)” value (4 h) was 0.06 and the “TRAPPC4 mRNA expression level (217959_s_at)” value (4 h) was 0.04. For the same compound, the “Transcribed locus mRNA expression level (230098_at)” value (4 h) was 0.08, the “WSB1 mRNA expression level (201294_s_at)” value (4 h) was 0.25 and the “ZCCHC6 mRNA expression level (220933_s_at)” value (4 h) was 0.06.

From US20100086931A1, “METHOD FOR ASSAYING ACTION OF ANTITUMOR AGENT USING DECREASE IN GENE EXPRESSION LEVEL AS INDEX” (Eisai R&D Management Co., Ltd., priority 2007, published 2010)
